In ChEMBL document CHEMBL1201862, “PubChem BioAssay data set” (2004):
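Where inhibition never reached the appropriate level, the endpoint shown equals the highest concentration tested. Otherwise, values were interpolated linearly from a five-concentration, 48-hour dose response in 96-well plates. GI50 marks 50% less growth.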 Active and inactive are the calls of the source. No stated cut-off is given here; in the data, active = GI50 up to about 1.1 µM and inactive = higher.

Legend:
Assay in all cases: NCI anticancer screen, dose series, 48 h
[1] = tested on: Malme-3M
[2] = tested on: HCT-15
[3] = tested on: PC-3
[4] = tested on: OVCAR-3
[5] = tested on: UACC-257
[6] = tested on: U-251
[7] = tested on: MOLT-4
[8] = tested on: KM12
[9] = tested on: A549
[10] = tested on: HT-29
[11] = tested on: 786-0
[12] = tested on: SK-MEL-28
[13] = tested on: EKVX
[14] = tested on: A498
[15] = tested on: CCRF-CEM
[16] = tested on: RXF 393
[17] = tested on: UO-31
[18] = tested on: NCI/ADR-RES
[19] = tested on: SK-OV-3
[20] = tested on: SNB-75

SMILES	GI50 [1]	GI50 [2] [µM]	GI50 [3]	GI50 [4]	GI50 [5]	GI50 [6]	GI50 [7]	GI50 [8]	GI50 [9]	GI50 [10]	GI50 [11]	GI50 [12]	GI50 [13]	GI50 [14]	GI50 [15]	GI50 [16]	GI50 [17]	GI50 [18]	GI50 [19]	GI50 [20]
CCOC(=O)Nc1nc(-c2ccccc2)c(C)s1	> 100 µM (inactive)	40.9	> 100 µM (inactive)	98.9 µM (inactive)	> 100 µM (inactive)	> 100 µM (inactive)	7.35 µM (inactive)	> 100 µM (inactive)	> 100 µM (inactive)	48.6 µM (inactive)	> 100 µM (inactive)	> 100 µM (inactive)	23.7 µM (inactive)	> 100 µM (inactive)	31.5 µM (inactive)	> 100 µM (inactive)	60 µM (inactive)	59 µM (inactive)	> 100 µM (inactive)	31.8 µM (inactive)
CC(=O)NC1C(OCc2ccccc2)OC(CO)C(O)C1OCC(=O)N1CCCC1C(=O)NC(CCC(=O)NCCCCCNc1c2ccccc2nc2cccc([N+](=O)[O-])c12)C(N)=O (stereo not given)	0.0188 µM (active)	0.0164	0.00321 µM (active)	0.0301 µM (active)	0.0481 µM (active)	0.0108 µM (active)	0.0561 µM (active)	0.02 µM (active)	0.0134 µM (active)	0.00125 µM (active)	0.0131 µM (active)	0.0307 µM (active)	0.148 µM (active)	0.0568 µM (active)	0.07 µM (active)	0.00938 µM (active)	0.0422 µM (active)	0.0726 µM (active)	0.0869 µM (active)	0.145 µM (active)
